Where “and” joins values, the source holds several entries; their conditions need not be identical. Identical values can stand only once.
Assays:
[1] = target: T1, Replicase polyprotein 1ab (Severe acute respiratory syndrome coronavirus 2, UniProt P0DTD1); experiment: SARS-CoV-2 in Vero E6
Procedure: Vero E6 cells were plated at 20,000 cells/well in a 96-well plate. 24hr later, medium containing a dose response of NHC was added concurrent with SARS-CoV-2 (2019-nCoV/USA-WA1/2020 strain) at an MOI of 0.05. 48 hours post infection, cell viability was measured by CellTiter Glo assay.

[2] = target: T1, Replicase polyprotein 1ab; experiment: SARS-CoV-2 in Calu-3
Procedure: Calu-3 2B4 cells were adsorbed with MOI 0.1 PFU/cell of SARS-CoV-2 (2019-nCoV/USA-WA1/2020 strain) at 37°C. Plates were manually rocked every 10 min to redistribute the inoculum. After 30 min, virus inoculum was removed, cells were washed with Phosphate buffered saline (PBS) once to remove unbound virus, medium containing NHC or vehicle control (DMSO) was added back onto the cells, and cells were incubated for 72 hours at 37°C.

`O=c1nc(NO)ccn1[C@@H]1O[C@H](CO)[C@@H](O)[C@H]1O` [NHC] was tested, and the IC50 [1] was 300 nM and the IC50 [2] was 80 nM and 90 nM.

— BindingDB's records for doi:10.1126/scitranslmed.abb5883 (University of North Carolina at Chapel Hill, 2020)
